# Data: PMC11200585, “Prospects for Prostate Cancer Chemotherapy: Cytotoxic Evaluation and Mechanistic Insights of Quinolinequinones with ADME/PK Profile” (Biomedicines, 2024)
# Assays:
# Type in all cases: cell-based, human
# [1] = tested on: A549/ATCC; assay: NCI-60 one-dose screen (non-small cell lung cancer); conditions: 10 µM single dose, 48 h
# [2] = tested on: EKVX; assay: as above; conditions: 10 µM single dose, 48 h
# [3] = tested on: HOP-62; assay: as above; conditions: 10 µM single dose, 48 h
# [4] = tested on: HOP-92; assay: as above; conditions: 10 µM single dose, 48 h
# [5] = tested on: NCI-H226; assay: as above; conditions: 10 µM single dose, 48 h
# [6] = tested on: NCI-H23; assay: as above; conditions: 10 µM single dose, 48 h
# [7] = tested on: NCI-H322M; assay: as above; conditions: 10 µM single dose, 48 h
# [8] = tested on: NCI-H460; assay: as above; conditions: 10 µM single dose
# [9] = tested on: NCI-H522; assay: as above; conditions: 10 µM single dose, 48 h
# [10] = tested on: EKVX; assay: NCI-60 five-dose assay (non-small cell lung cancer); conditions: 48 h, SRB
# [11] = tested on: HOP-62; assay: as above; conditions: 48 h, SRB
# [12] = tested on: HOP-92; assay: as above; conditions: 48 h, SRB
# [13] = tested on: NCI-H23; assay: as above; conditions: 48 h, SRB
# [14] = tested on: NCI-H460; assay: as above; conditions: 48 h, SRB
# [15] = tested on: NCI-H522; assay: as above; conditions: 48 h, SRB
# [16] = tested on: HCC-2998; assay: NCI-60 five-dose assay (colon cancer); conditions: 48 h, SRB
# [17] = tested on: HCT-15; assay: NCI-60 five-dose assay (colon cancer); conditions: 48 h, SRB
# [18] = tested on: HT29; assay: NCI-60 five-dose assay (colon cancer); conditions: SRB
# [19] = tested on: SW-620; assay: NCI-60 five-dose assay (colon cancer); conditions: 48 h, SRB
# [20] = tested on: SF-268; assay: NCI-60 five-dose assay (CNS cancer); conditions: 48 h, SRB
# [21] = tested on: SF-539; assay: NCI-60 five-dose assay (CNS cancer); conditions: 48 h, SRB
# [22] = tested on: SNB-75; assay: NCI-60 five-dose assay (CNS cancer); conditions: 48 h, SRB
# [23] = tested on: U251; assay: NCI-60 five-dose assay (CNS cancer); conditions: SRB
# [24] = tested on: M14; assay: NCI-60 five-dose assay (melanoma); conditions: 48 h, SRB
# [25] = tested on: SK-MEL-5; assay: NCI-60 five-dose assay (melanoma); conditions: 48 h, SRB
# [26] = tested on: UACC-62; assay: NCI-60 five-dose assay (melanoma); conditions: 48 h, SRB
# [27] = tested on: SK-OV-3; assay: NCI-60 five-dose assay (ovarian cancer); conditions: 48 h, SRB
# [28] = tested on: 786-0; assay: NCI-60 five-dose assay (renal cancer); conditions: 48 h, SRB
# [29] = tested on: SN12C; assay: NCI-60 five-dose assay (renal cancer); conditions: 48 h, SRB
# [30] = tested on: TK-10; assay: NCI-60 five-dose assay (renal cancer); conditions: 48 h, SRB
# [31] = tested on: UO-31; assay: NCI-60 five-dose assay (renal cancer); conditions: 48 h, SRB
# [32] = tested on: MCF7; assay: NCI-60 five-dose assay (breast cancer); conditions: 48 h, SRB
# [33] = tested on: MDA-MB-231/ATCC; assay: NCI-60 five-dose assay (breast cancer); conditions: 48 h, SRB
# [34] = tested on: T-47D; assay: NCI-60 five-dose assay (breast cancer); conditions: 48 h, SRB
# [35] = Homo sapiens, read-out: LC50 (the source's name)
compound,measurement,setting,value
CCOc1ccc(NC2=C(Cl)C(=O)c3nc(C)ccc3C2=O)cc1 [AQQ3],GP (growth percentage),[1],46.18%
same,GP (growth percentage),[2],−97.48%
same,GP (growth percentage),[3],72.15%
same,GP (growth percentage),[4],−86.99%
same,GP (growth percentage),[5],−52.55%
same,GP (growth percentage),[6],−61.00%
same,GP (growth percentage),[7],32.37%
same,GP (growth percentage),[8]; 48 h,13.41%
same,inhibition at 10 µM,[8]; Homo sapiens,86.6%
same,GP (growth percentage),[9],−61.57%
same,TGI,[10],3.12 µM
same,GI50,[10]; Homo sapiens,1.61 µM
same,CC50,[10]; [35],6.05 µM
same,TGI,[11],3.23 µM
same,GI50,[11]; Homo sapiens,1.74 µM
same,LC50 (concentration killing 50% of cells),[11]; Homo sapiens,6.01 µM
same,TGI,[12],3.51 µM
same,GI50,[12]; Homo sapiens,2.01 µM
same,LC50 (50% lethal concentration),[12]; Homo sapiens,6.12 µM
same,TGI,[13],2.85 µM
same,GI50,[13]; Homo sapiens,1.35 µM
same,CC50,[13]; [35],6.03 µM
same,TGI,[14],10.4 µM
same,GI50,[14]; Homo sapiens,3.08 µM
same,CC50,[14]; [35],49.7 µM
same,TGI,[15],3.22 µM
same,GI50,[15]; Homo sapiens,1.75 µM
same,LC50,[15]; Homo sapiens,5.94 µM
same,TGI,[16],3.25 µM
same,GI50,[16]; Homo sapiens,1.76 µM
same,LC50 (concentration killing 50% of cells),[16]; Homo sapiens,6 µM
same,TGI,[17],2.94 µM
same,GI50,[17]; Homo sapiens,1.3 µM
same,CC50,[17]; [35],6.66 µM
same,TGI,[18]; 48 h,7.08 µM
same,GI50,"[18]; Homo sapiens, HT-29, 48 h",2.87 µM
same,LC50 (concentration killing 50% of cells),"[18]; Homo sapiens, HT-29, 48 h",62.5 µM
same,TGI,[19],3.51 µM
same,GI50,[19]; Homo sapiens,1.83 µM
same,LC50,[19]; Homo sapiens,6.73 µM
same,TGI,[20],3.09 µM
same,GI50,[20]; Homo sapiens,1.55 µM
same,LC50 (concentration killing 50% of cells),[20]; Homo sapiens,6.14 µM
same,TGI,[21],3.13 µM
same,GI50,[21]; Homo sapiens,1.68 µM
same,LC50,[21]; Homo sapiens,5.84 µM
same,TGI,[22],2.79 µM
same,GI50,[22]; Homo sapiens,1.46 µM
same,LC50 (50% lethal concentration),[22]; Homo sapiens,5.33 µM
same,TGI,[23]; 48 h,3.54 µM
same,GI50,"[23]; Homo sapiens, U-251, 48 h",1.8 µM
same,LC50 (concentration killing 50% of cells),"[23]; Homo sapiens, U-251, 48 h",6.94 µM
same,TGI,[24],3.23 µM
same,GI50,[24]; Homo sapiens,1.68 µM
same,LC50,[24]; Homo sapiens,6.21 µM
same,TGI,[25],3.11 µM
same,GI50,[25]; Homo sapiens,1.72 µM
same,CC50,[25]; [35],5.62 µM
same,TGI,[26],3.29 µM
same,GI50,[26]; Homo sapiens,1.81 µM
same,LC50 (concentration killing 50% of cells),[26]; Homo sapiens,5.97 µM
same,TGI,[27],30.1 µM
same,GI50,[27]; Homo sapiens,11 µM
same,LC50 (50% net cell kill),[27]; Homo sapiens,82.3 µM
same,TGI,[28],3.19 µM
same,GI50,[28]; Homo sapiens,1.72 µM
same,LC50,[28]; Homo sapiens,5.89 µM
same,TGI,[29],2.99 µM
same,GI50,[29]; Homo sapiens,1.58 µM
same,LC50 (concentration killing 50% of starting cells),[29]; Homo sapiens,5.66 µM
same,TGI,[30],3.77 µM
same,GI50,[30]; Homo sapiens,2.3 µM
same,LC50 (concentration killing 50% of starting cells),[30]; Homo sapiens,6.18 µM
same,TGI,[31],2.75 µM
same,GI50,[31]; Homo sapiens,1.43 µM
same,LC50 (lethal concentration 50%),[31]; Homo sapiens,5.28 µM
same,TGI,[32],3.82 µM
same,GI50,[32]; Homo sapiens,1.54 µM
same,LC50,[32]; Homo sapiens,9.44 µM
same,TGI,[33],2.50 µM
same,GI50,[33]; Homo sapiens,1.17 µM
same,LC50 (concentration killing 50% of cells),[33]; Homo sapiens,5.34 µM
same,TGI,[34],3.91 µM
same,GI50,"[34]; Homo sapiens, T47D",1.01 µM
same,CC50,"[34]; Homo sapiens, T47D, read-out: LC50 (the source's name)",> 100 µM
